According to ChEMBL document CHEMBL5518224, “Rational Design of PARP1/c-Met Dual Inhibitors for Overcoming PARP1 Inhibitor Resistance Induced by c-Met Overexpression” (J Med Chem, 2024):
Values belong to the molecule of their own block, whether it stands above or below them. Active and inactive are the calls of the source. No cut-off for these calls is given here.

Key:
[1] = tested on: MDA-MB-231; experiment: Induction of apoptosis in human MDA-MB-231 cells assessed as dead cells at 1 uM incubated for 4 days by Annexin V-FITC/PI staining based flow cytometry analysis (reference value: 0.72%); assay type: functional; conditions: time 4 day
[2] = tested on: MDA-MB-468; experiment: Antiproliferative activity against human MDA-MB-468 cells harboring wild type BRCA1/2, HR-proficient and non-c-Met amplification assessed as inhibition of cell growth incubated for 7 days by MTT assay; assay type: functional, cell-based; conditions: MDA-MB-468, 168 h
[3] = tested on: Olaparib-resistant HCT116; experiment: Potency index, ratio of olaparib IC50 to test compound IC50 for antiproliferative activity against human Olaparib-resistant HCT116 cells harboring BRCA2 mutant assessed as inhibition of cell growth incubated for 7 days by MTT assay; assay type: functional; conditions: time 7 day
[4] = tested on: MDA-MB-231; experiment: Induction of apoptosis in human MDA-MB-231 cells assessed as dead cells at 0.5 uM incubated for 4 days by Annexin V-FITC/PI staining based flow cytometry analysis (reference value: 0.72%); assay type: functional; conditions: time 4 day
[5] = tested on: MDA-MB-231; experiment: Induction of apoptosis in human MDA-MB-231 cells assessed as early apoptotic cells at 0.5 uM incubated for 4 days by Annexin V-FITC/PI staining based flow cytometry analysis (reference value: 3.88%); assay type: functional; conditions: time 4 day
[6] = tested on: MDA-MB-468; experiment: Potency index, ratio of crizotinib IC50 to test compound IC50 for antiproliferative activity against human MDA-MB-468 cells harboring wild type BRCA1/2, HR-proficient and non-c-Met amplification assessed as inhibition of cell growth incubated for 7 days by MTT assay; assay type: functional; conditions: time 7 day
[7] = tested on: MDA-MB-231; experiment: Induction of apoptosis in human MDA-MB-231 cells assessed as live cells at 1 uM incubated for 4 days by Annexin V-FITC/PI staining based flow cytometry analysis (reference value: 94.6%); assay type: functional; conditions: time 4 day
[8] = tested on: MDA-MB-231; experiment: Antiproliferative activity against human MDA-MB-231 cells harboring wild type BRCA and c-Met amplification assessed as inhibition of cell growth incubated for 7 days by MTT assay; assay type: functional, cell-based; conditions: MDA-MB-231, 168 h
[9] = molecular target: Hepatocyte growth factor receptor (Homo sapiens, UniProt P08581); experiment: Inhibition of c-Met (unknown origin) by HTRF method
Chain of Hepatocyte growth factor receptor (P08581 whole entry): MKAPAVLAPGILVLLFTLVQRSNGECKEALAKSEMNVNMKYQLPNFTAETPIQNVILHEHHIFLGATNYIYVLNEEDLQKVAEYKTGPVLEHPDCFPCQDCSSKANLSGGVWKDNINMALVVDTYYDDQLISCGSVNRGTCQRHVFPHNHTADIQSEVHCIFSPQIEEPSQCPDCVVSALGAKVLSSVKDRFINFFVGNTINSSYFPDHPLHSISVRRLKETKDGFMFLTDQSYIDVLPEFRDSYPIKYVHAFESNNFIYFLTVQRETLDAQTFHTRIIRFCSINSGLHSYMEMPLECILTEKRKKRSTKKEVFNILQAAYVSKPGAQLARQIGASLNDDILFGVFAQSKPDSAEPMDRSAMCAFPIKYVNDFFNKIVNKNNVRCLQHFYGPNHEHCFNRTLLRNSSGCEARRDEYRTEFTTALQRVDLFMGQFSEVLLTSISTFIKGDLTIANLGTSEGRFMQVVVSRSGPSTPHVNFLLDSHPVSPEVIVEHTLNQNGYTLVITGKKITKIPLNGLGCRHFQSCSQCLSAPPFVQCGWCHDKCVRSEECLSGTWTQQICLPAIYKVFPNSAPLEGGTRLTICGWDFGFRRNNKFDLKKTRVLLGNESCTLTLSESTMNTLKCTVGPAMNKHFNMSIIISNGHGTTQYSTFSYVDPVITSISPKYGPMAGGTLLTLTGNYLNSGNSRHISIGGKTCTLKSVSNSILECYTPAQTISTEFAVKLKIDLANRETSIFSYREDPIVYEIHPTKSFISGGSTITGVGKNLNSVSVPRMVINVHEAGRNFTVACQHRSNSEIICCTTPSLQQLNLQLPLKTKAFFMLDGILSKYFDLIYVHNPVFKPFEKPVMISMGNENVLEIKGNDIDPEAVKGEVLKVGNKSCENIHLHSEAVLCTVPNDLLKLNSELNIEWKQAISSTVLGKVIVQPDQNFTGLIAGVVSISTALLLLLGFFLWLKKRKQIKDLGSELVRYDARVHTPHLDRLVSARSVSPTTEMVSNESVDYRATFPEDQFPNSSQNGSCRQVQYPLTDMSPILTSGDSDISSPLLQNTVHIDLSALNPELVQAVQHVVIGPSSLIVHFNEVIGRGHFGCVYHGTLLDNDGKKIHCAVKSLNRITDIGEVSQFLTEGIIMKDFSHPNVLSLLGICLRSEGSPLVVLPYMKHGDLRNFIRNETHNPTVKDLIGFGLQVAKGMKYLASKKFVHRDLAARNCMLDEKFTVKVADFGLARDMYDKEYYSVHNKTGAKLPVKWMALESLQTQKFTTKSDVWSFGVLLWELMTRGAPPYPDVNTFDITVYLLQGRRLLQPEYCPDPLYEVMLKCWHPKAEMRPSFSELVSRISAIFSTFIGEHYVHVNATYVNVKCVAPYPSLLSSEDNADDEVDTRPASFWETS

[10] = tested on: MDA-MB-231; experiment: Induction of apoptosis in human MDA-MB-231 cells assessed as late apoptotic cells at 1 uM incubated for 4 days by Annexin V-FITC/PI staining based flow cytometry analysis (reference value: 0.81%); assay type: functional; conditions: time 4 day
[11] = Antiproliferative activity against human Olaparib-resistant HCC1937 cells harboring BRCA1 mutant and PARP1 overexpression assessed as inhibition of cell growth incubated for 7 days by MTT assay; assay type: functional, cell-based; conditions: Olaparib-resistant HCC1937, 168 h
[12] = molecular target: Poly [ADP-ribose] polymerase 1 (Homo sapiens, UniProt P09874); experiment: Inhibition of PARP1 (unknown origin) using histone as substrate incubated for 45 mins by absorbance based analysis
Chain of Poly [ADP-ribose] polymerase 1 (P09874 whole entry): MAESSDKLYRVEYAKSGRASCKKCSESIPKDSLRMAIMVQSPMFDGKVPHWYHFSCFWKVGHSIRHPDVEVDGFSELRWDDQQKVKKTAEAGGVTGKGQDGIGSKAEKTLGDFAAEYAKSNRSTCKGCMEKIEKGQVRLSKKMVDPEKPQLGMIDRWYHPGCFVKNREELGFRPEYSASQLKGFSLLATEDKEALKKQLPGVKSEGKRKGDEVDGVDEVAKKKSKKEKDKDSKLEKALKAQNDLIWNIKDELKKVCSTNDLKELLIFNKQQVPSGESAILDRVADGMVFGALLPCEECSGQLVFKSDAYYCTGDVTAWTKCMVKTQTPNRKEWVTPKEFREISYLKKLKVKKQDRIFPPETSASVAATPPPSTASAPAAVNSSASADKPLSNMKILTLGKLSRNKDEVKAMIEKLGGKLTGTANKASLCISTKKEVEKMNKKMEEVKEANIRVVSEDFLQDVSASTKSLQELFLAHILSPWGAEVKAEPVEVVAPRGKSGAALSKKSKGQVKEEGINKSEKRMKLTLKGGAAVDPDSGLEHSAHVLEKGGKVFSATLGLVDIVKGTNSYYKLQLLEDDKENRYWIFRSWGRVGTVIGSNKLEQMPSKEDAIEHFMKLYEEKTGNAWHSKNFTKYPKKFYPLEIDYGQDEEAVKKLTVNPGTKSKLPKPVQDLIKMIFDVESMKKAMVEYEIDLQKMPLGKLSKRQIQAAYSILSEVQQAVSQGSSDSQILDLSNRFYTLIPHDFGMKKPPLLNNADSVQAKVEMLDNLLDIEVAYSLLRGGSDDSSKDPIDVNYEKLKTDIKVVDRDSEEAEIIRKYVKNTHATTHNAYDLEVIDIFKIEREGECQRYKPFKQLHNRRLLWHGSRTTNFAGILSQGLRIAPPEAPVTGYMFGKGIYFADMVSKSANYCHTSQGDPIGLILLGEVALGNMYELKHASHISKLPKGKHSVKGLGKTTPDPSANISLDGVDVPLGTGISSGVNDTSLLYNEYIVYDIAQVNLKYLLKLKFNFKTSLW

[13] = Cytotoxicity against NRK cells assessed as inhibition of cell growth incubated for 72 hrs by MTT assay; assay type: toxicity, cell-based; conditions: rat
[14] = tested on: MDA-MB-231; experiment: Induction of apoptosis in human MDA-MB-231 cells assessed as late apoptotic cells at 0.5 uM incubated for 4 days by Annexin V-FITC/PI staining based flow cytometry analysis (reference value: 0.81%); assay type: functional; conditions: time 4 day
[15] = tested on: MDA-MB-231; experiment: Induction of apoptosis in human MDA-MB-231 cells assessed as live cells at 0.5 uM incubated for 4 days by Annexin V-FITC/PI staining based flow cytometry analysis (reference value: 94.6%); assay type: functional; conditions: time 4 day
[16] = tested on: Olaparib-resistant HCT116; experiment: Antiproliferative activity against human Olaparib-resistant HCT116 cells harboring BRCA2 mutant assessed as inhibition of cell growth incubated for 7 days by MTT assay; assay type: functional, cell-based; conditions: Olaparib-resistant HCT116, 168 h
[17] = tested on: MDA-MB-231; experiment: Potency index, ratio of olaparib IC50 to test compound IC50 for antiproliferative activity against human MDA-MB-231 cells harboring wild type BRCA and c-Met amplification assessed as inhibition of cell growth incubated for 7 days by MTT assay; assay type: functional; conditions: time 7 day
[18] = Potency index, ratio of olaparib IC50 to test compound IC50 for antiproliferative activity against human Olaparib-resistant HCC1937 cells harboring BRCA1 mutant and PARP1 overexpression assessed as inhibition of cell growth incubated for 7 days by MTT assay; assay type: functional; conditions: time 7 day
[19] = tested on: MDA-MB-231; experiment: Induction of apoptosis in human MDA-MB-231 cells assessed as early apoptotic cells at 1 uM incubated for 4 days by Annexin V-FITC/PI staining based flow cytometry analysis (reference value: 3.88%); assay type: functional; conditions: time 4 day
[20] = tested on: MDA-MB-468; experiment: Potency index, ratio of olaparib IC50 to test compound IC50 for antiproliferative activity against human MDA-MB-468 cells harboring wild type BRCA1/2, HR-proficient and non-c-Met amplification assessed as inhibition of cell growth incubated for 7 days by MTT assay; assay type: functional; conditions: time 7 day
[21] = tested on: MDA-MB-231; experiment: Induction of apoptosis in human MDA-MB-231 cells assessed as late apoptotic cells at 1 uM incubated for 4 days in presence of crizotinib at 0.5 uM by Annexin V-FITC/PI staining based flow cytometry analysis (reference value: 0.81%); assay type: functional; conditions: time 4 day
[22] = tested on: MDA-MB-231; experiment: Induction of apoptosis in human MDA-MB-231 cells assessed as live cells at 1 uM incubated for 4 days in presence of crizotinib at 0.5 uM by Annexin V-FITC/PI staining based flow cytometry analysis (reference value: 94.6%); assay type: functional; conditions: time 4 day
[23] = tested on: MDA-MB-231; experiment: Antitumor activity against human MDA-MB-231 cells xenografted in female Balb/c nude mouse assessed as reduction in tumor weight at 50 mg/kg/day, ip qd administered for 28 days in presence of crizotinib at 25 mg/kg, po qd; assay type: functional, organism-based; conditions: time 28.0 day
[24] = tested on: Olaparib-resistant HCT116; experiment: Antitumor activity against human Olaparib-resistant HCT116 cells xenografted in female Balb/c nude mouse assessed as tumor growth inhibition at 50 mg/kg/day, ip qd administered for 21 days relative to control; assay type: functional; conditions: time 21 day
[25] = tested on: MDA-MB-231; experiment: Induction of apoptosis in human MDA-MB-231 cells assessed as dead cells at 1 uM incubated for 4 days in presence of crizotinib at 0.5 uM by Annexin V-FITC/PI staining based flow cytometry analysis (reference value: 0.72%); assay type: functional; conditions: time 4 day
[26] = tested on: MDA-MB-231; experiment: Induction of apoptosis in human MDA-MB-231 cells assessed as early apoptotic cells at 1 uM incubated for 4 days in presence of crizotinib at 0.5 uM by Annexin V-FITC/PI staining based flow cytometry analysis (reference value: 3.88%); assay type: functional; conditions: time 4 day
[27] = tested on: MDA-MB-231; experiment: Antitumor activity against human MDA-MB-231 cells xenografted in female Balb/c nude mouse assessed as tumor growth inhibition at 50 mg/kg/day, ip qd administered for 28 days relative to control; assay type: functional; conditions: time 28 day
[28] = tested on: Olaparib-resistant HCT116; experiment: Antitumor activity against human Olaparib-resistant HCT116 cells xenografted in female Balb/c nude mouse assessed as reduction in tumor weight at 50 mg/kg/day, ip qd administered for 21 days; assay type: functional, organism-based; conditions: time 21.0 day
[29] = tested on: Olaparib-resistant HCT116; experiment: Antitumor activity against human Olaparib-resistant HCT116 cells xenografted in female Balb/c nude mouse assessed as tumor growth inhibition at 50 mg/kg/day, ip qd administered for 21 days in presence of crizotinib at 25 mg/kg/day, po qd relative to control; assay type: functional; conditions: time 21 day
[30] = tested on: MDA-MB-231; experiment: Antitumor activity against human MDA-MB-231 cells xenografted in female Balb/c nude mouse assessed as reduction in tumor weight at 50 mg/kg/day, ip qd administered for 28 days; assay type: functional, organism-based; conditions: time 28.0 day
[31] = tested on: Olaparib-resistant HCT116; experiment: Antitumor activity against human Olaparib-resistant HCT116 cells xenografted in female Balb/c nude mouse assessed as reduction in tumor weight at 25 mg/kg/day, po qd administered for 21 days in presence of olaparib at 50 mg/kg/day, ip qd; assay type: functional, organism-based; conditions: time 21.0 day
[32] = tested on: Olaparib-resistant HCT116; experiment: Antitumor activity against human Olaparib-resistant HCT116 cells xenografted in female Balb/c nude mouse assessed as reduction in tumor weight at 50 mg/kg/day, ip qd administered for 21 days in presence of crizotinib at 25 mg/kg/day, po qd; assay type: functional, organism-based; conditions: time 21.0 day

Structure (SMILES): O=C(c1cc(Cc2n[nH]c(=O)c3ccccc23)ccc1F)N1CCN(c2ccc3c(OCCn4nc(-c5cccnc5)ccc4=O)ccnc3c2)CC1
Activity [1]: 6.37%
IC50 [2]: 0.17 µM
Ratio IC50 [3]: 10
Activity [4]: 5%
Activity [5]: 8.46%
Ratio IC50 [6]: 26
Activity [7]: 67.2%
IC50 [8]: 0.045 µM
IC50 [9]: 0.0322 µM
Activity [10]: 10.6%
IC50 [11]: 4.57 µM
IC50 [12]: 0.0033 µM
IC50 at 72 h [13]: 8.73 µM
Activity [14]: 8.09%
Activity [15]: 78.5%
IC50 [16]: 5.33 µM
Ratio IC50 [17]: 680
Ratio IC50 [18]: 4
Activity [19]: 15.8%
Ratio IC50 [20]: 54

IC50 [2]: 9.23 µM
IC50 [8]: 30.7 µM
IC50 [16]: 50.8 µM
Structure (SMILES): O=C(c1cc(Cc2n[nH]c(=O)c3ccccc23)ccc1F)N1CCN(C(=O)C2CC2)CC1 [OLAPARIB]
Activity [1]: 4.86%
Activity [21]: 6.57%
Activity [22]: 76.9%
Activity [23]: Active
TGI [24]: 26%
Activity [25]: 9.45%
Activity [7]: 88.9%
Activity [26]: 7.12%
TGI [27]: 27%
Activity [10]: 2.48%
IC50 [11]: 18.9 µM
Activity [28]: Active
TGI [29]: 48%
Activity [30]: Active
Activity [31]: Active
Activity [32]: Active
Activity [19]: 3.77%
